In patent US10098849B2, “Anti-radical agents” (BASF SE, priority 2004, dated 2018):
Like-named read-outs stand apart in the source and are kept apart here.

How the values were obtained:
[1] = system: Primary human dermal fibroblasts (HDF-N2)
Procedure: Cell cultures: Primary human dermal fibroblasts (HDF-N2) are maintained in Dulbecco's culture media (DMEM; 1 g/l glucose), supplemented with 10% of fetal calf serum (FCS), 100 μg/ml of streptomycin sulphate, 100 μml of penicillin and 2 mM of L-glutamine, all of them from Biowhitaker, USA. Confluent cells are detached by incubation for 3 minutes in 0.055 trypsin/0.53 mM EDTA at 37° C. and plated at the established cell density (normally, 15×10^4 cells/cm^2).
Culture media of negative controls are containing 10 mMol NaCl or 0.05% DMSO or 0.05% ethanol, respectively. Positive control is a culture medium containing 0.02% of Sodium Lauryl Sulfate (SDS).
For comparative purposes, a further culture medium is used containing the compound of the formula

[2] = system: squalene peroxidation (squalenehydroperoxide) in skin lipids; assay: Efficacy against photooxidative stress in the skin induced by UVA irradiation (squalenehydroperoxide, HPLC); format: in vivo, human
Procedure: Anti-oxidant activity in vivo is measured via the capacity of a test compound to reduce radical induced lipid-peroxidation. • Persons tested: 10 individuals (4 female, 6 male); age range: 18 to 32 years • Body region tested: inner forearm • Application phase: once a day • Test period 7 days • Evaluation method: Determination of squalene • Determination of squalenehydroperoxide • Time of Evaluation: after UVA radiation • Evaluation: Descriptive statistics: average, median, minimum, maximum, variance, standard error, standard deviation; Multiple range test. Test Method
On the inner forearm of each subject symmetrically opposed areas are defined. The different formulations are applied once a day at a dose of about 2 mg of test solution/cm^2 for one week (application with a syringe for fine dosage: Omnifix®-F 1 ml; manufacturer: Braun Melsungen AG, Germany).
Two areas remain untreated.
The unique application of a solution of tocopherol in ethanol (0.2%) before irradiation serves as control.
Use of other cosmetic products is restricted on the test areas throughout the whole study. The areas (exception: one of the two untreated areas was not irradiated and can be attributed to environmental UVA radiation during the test) of the […] were then irradiated with UVA light (10 joule/cm^2). The lipids present on the test areas are harvested via a solvent extraction (4 ml ethanol for 2 minutes). The samples are first filtered through hydrophobic polypropylene filters to decant squames and other insoluble material, then dried under nitrogen at room temperature and taken up in 1 ml ethanol. Squalene (SQ) and squalenehydroperoxide (SQOOH) are then analysed by High Performance Liquid Chromatography (HPLC).
The fluorometer is used as a photon detector with the excitation source turned off.
This assay measures the hydroperoxy groups themselves and not indirect indices of lipid peroxidation such as conjugated dienes or breakdown products of lipid hydroperoxides. Chemiluminescence also detects ubiquinols. To confirm that any chemiluminescence observed in this assay was due to a hydroperoxide, not a hydroquinone, some samples were reduced with triphenyl phosphine and rerun.
Measuring data are centrally computerised after validity check and quality assurance. Evaluation is done using the software Statgraphics for Windows, Version 5.0—Manugistics, USA. Data are analysed by multiple range test (LSD: Least Significant Differences). The 0.05 level is selected as the point of minimal acceptance statistical significance.

[3] = 5% stock solution in DMSO or ethanol diluted 1:500 in culture medium with 10% FCS, 48 h HDF cultures, more absorption = more viable cells
[4] = 1% b.w. solution in ethanol, about 2 mg/cm^2 once a day for 7 days, inner forearm, UVA 10 joule/cm^2, 10 individuals

For `CCCCCCCCCCCCOS(=O)(=O)[O-].[Na+]` [SDS, Sodium Lauryl Sulfate, reference compound], the “Absorbance (OD450) after 24 h treatment” value ([1]; positive control, culture medium containing 0.02% Sodium Lauryl Sulfate, 48 h HDF cultures) was 0.25.
With “pentaerythritol-tetrakis(3-[3′,5′-di-tert.butyl-4′-hydroxyphenyl]-propionate) [AO7]” the “Absorbance (OD450) after 24 h treatment” value [1, 3] was 2.0 and the “average inhibition in % of peroxidation (SQOOH relative to untreated area)” value ([2]; 0.1% b.w. solution in ethanol, about 2 mg/cm^2 once a day for 7 days, inner forearm, UVA 10 joule/cm^2, 10 individuals) was 21.5%.
`CC(c1cc(C(C)(C)C)cc(C(C)(C)C)c1O)c1cc(C(C)(C)C)cc(C(C)(C)C)c1O` [AO4] was tested, and the “Absorbance (OD450) after 24 h treatment” value ([1]; human, 24 h, 0.01 %) was 1.0 and the “average inhibition in % of peroxidation (SQOOH relative to untreated area)” value [2, 4] was 28%.
In the case of `CC(C)Cc1ccc(Oc2ccccc2)cc1O` [comparison, reference compound], the “Absorbance (OD450) after 24 h treatment” value ([1]; human, 24 h, 0.01 %) is reported as 0.25.
`CC(C)(C)c1cc(CCC(=O)Nc2ccc(S(=O)(=O)[O-])cc2)cc(C(C)(C)C)c1O.[Na+]` [AO6] was tested, and the “Absorbance (OD450) after 24 h treatment” value ([1]; human, 24 h, 0.01 %) was 1.9 and the “average inhibition in % of peroxidation (SQOOH relative to untreated area)” value [2, 4] was 28%.
For `Cc1c(C)c2c(c(C)c1O)CC[C@@](C)(CCC[C@H](C)CCC[C@H](C)CCCC(C)C)O2` [Control, tocopherol, reference compound], the “average inhibition in % of peroxidation (SQOOH relative to untreated area)” value ([2]; unique application of tocopherol in ethanol (0.2%) before irradiation, UVA 10 joule/cm^2) was 22.5%.
For `CC1(C)CC(O)CC(C)(C)N1O` [AO8], the “Absorbance (OD450) after 24 h treatment” value [1, 3] was 1.65 and the “average inhibition in % of peroxidation (SQOOH relative to untreated area)” value [2, 4] was 21%.
